Assay [1] addresses T1, JAK3 enzyme (Homo sapiens, UniProt P52333).
T1 sequence (P52333 1-1124): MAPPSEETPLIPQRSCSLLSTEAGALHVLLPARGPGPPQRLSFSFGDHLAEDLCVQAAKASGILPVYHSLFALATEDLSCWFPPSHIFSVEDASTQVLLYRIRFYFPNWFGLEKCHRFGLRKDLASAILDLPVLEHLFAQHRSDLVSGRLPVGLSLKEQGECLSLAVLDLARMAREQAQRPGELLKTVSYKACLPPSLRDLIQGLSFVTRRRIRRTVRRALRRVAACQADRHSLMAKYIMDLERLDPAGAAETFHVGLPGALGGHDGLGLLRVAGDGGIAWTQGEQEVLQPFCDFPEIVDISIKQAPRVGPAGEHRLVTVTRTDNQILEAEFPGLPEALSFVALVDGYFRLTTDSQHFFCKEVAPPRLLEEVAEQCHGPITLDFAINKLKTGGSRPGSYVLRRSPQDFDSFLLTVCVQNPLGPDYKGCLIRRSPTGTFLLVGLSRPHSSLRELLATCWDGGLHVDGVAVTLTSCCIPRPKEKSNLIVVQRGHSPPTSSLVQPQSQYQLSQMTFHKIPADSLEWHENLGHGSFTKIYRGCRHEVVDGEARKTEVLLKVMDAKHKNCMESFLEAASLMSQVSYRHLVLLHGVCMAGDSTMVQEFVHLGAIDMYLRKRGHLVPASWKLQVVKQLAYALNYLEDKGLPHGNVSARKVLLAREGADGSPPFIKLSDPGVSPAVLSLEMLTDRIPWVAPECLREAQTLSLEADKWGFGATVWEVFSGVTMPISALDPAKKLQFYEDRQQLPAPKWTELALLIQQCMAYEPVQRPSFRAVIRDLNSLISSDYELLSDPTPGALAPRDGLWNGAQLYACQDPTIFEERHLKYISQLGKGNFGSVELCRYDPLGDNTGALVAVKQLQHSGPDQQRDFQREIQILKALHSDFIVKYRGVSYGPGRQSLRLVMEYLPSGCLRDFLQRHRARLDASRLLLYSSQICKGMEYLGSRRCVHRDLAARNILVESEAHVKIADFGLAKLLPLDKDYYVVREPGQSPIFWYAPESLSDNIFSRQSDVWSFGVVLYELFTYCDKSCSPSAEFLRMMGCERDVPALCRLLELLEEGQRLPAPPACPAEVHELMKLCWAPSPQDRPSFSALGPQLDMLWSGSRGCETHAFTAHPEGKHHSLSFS
Put plainly: JAK Caliper Enzyme Assay at 4 μM ATP. Format: biochemical. Here is the method:
(§1) Test article was solubilized in dimethyl sulfoxide (DMSO) to a stock concentration of 30 mM. An 11-point half log dilution series was created in DMSO with a top concentration of 600 μM. […] Test article and assay controls were added to a 384-well plate. […] Enzyme concentrations and incubation times were optimized for each new enzyme preps and were modified slightly over time to ensure 20%-30% phosphorylation. […] The assay plates were placed on a Caliper Life Science Lab Chip 3000 (LC3000) instrument, and each well was sampled using appropriate separation conditions to measure the unphosphorylated and phosphorylated peptide.

For assay [2], the target named is T1, JAK3 enzyme. As to the kind of experiment: JAK Caliper Enzyme Assay at 1 mM ATP. In kind it is biochemical. Here is the method:
as §1

Molecules are shown by their SMILES. pIC50: −log10 of the molar value.

Consider `C=CC(=O)N1CCC[C@@H]1COc1cnc2[nH]cc(C(=O)N[C@@H](C)COC)c2n1` (single isomer, unassigned) [Example 9], for which the values for the pIC50 in assay [1] and in assay [2] were 8.05 and 5.92, respectively.
Turning to `C=CC(=O)N1CCC(Oc2cnc3[nH]cc(C(=O)NCc4cccc(F)c4)c3c2)CC1` [Example 340, 5-[(1-acryloylpiperidin-4-yl)oxy]-N-(3-fluorobenzyl)-1H-pyrrolo[2,3-b]pyridine-3-carboxamide], the pIC50 (usually −log10 of the IC50, conventionally taken in molar units) in assay [1] is 7.52; in assay [2], 5.46.
Take `C=CC(=O)N1C[C@H](Nc2cnc3[nH]cc(C(=O)NCC)c3n2)C[C@H]1COCC` [Example 250, 2-{[(3R,5S)-1-acryloyl-5-(ethoxymethyl)pyrrolidin-3-yl]amino}-N-ethyl-5H-pyrrolo[2,3-b]pyrazine-7-carboxamide]: the pIC50 is 8.37 in assay [1] and 6.10 in assay [2].
Turning to `C=CC(=O)N1CC[C@@H](Nc2cnc3[nH]cc(C(=O)NCCC(F)(F)F)c3n2)C[C@H]1C` (single isomer, unassigned) [Example 23], the pIC50 in assay [1] was 8.45; in assay [2], 6.19.
`C=CC(=O)N1CCN(c2cnc3[nH]cc(C(=O)NC(C)(C)COC)c3n2)CC1(C)C` [Example 151, 2-(4-acryloyl-3,3-dimethylpiperazin-1-yl)-N-(1-methoxy-2-methylpropan-2-yl)-5H-pyrrolo[2,3-b]pyrazine-7-carboxamide]: the pIC50 in assay [1] is 7.87; in assay [2], 5.82.
The corresponding values for `C=CC(=O)N1C[C@H](Nc2ncnc3[nH]ccc23)CC[C@H]1[C@@H](C)O` (single isomer, unassigned) [Example 110] are 6.06 and < 5.00.
Turning to `C=CC(=O)N1C[C@H](Nc2ncnc3[nH]ccc23)CC[C@@H]1COC` (single isomer, unassigned) [Example 92], the values for the pIC50 in assay [1] and in assay [2] were 7.68 and 5.61, respectively.
On to `C=CC(=O)N1C[C@H](Nc2cnc3[nH]cc(C(=O)NCCOC)c3n2)C[C@@H]1COC` [Example 246, 2-{[(3R,5R)-1-acryloyl-5-(methoxymethyl)pyrrolidin-3-yl]amino}-N-(2-methoxyethyl)-5H-pyrrolo[2,3-b]pyrazine-7-carboxamide], for which the figures for the pIC50 in assay [1] and in assay [2] were 8.11 and 5.95, respectively.
With `C=CC(=O)N1CCN(c2cnc3[nH]cc(C(=O)NC(CO)c4ccc(F)cc4)c3n2)CC1(C)C` (racemic) [Example 165, Racemic-2-(4-acryloyl-3,3-dimethylpiperazin-1-yl)-N-[1-(4-fluorophenyl)-2-hydroxyethyl]-5H-pyrrolo[2,3-b]pyrazine-7-carboxamide], the pIC50 in assay [1] was 7.97; in assay [2], 6.02.
For the compound `C=CC(=O)N1C[C@H](Nc2cnc3[nH]cc(C(=O)NCC)c3n2)C[C@H]1COC` [Example 239, 2-{[(3R,5S)-1-acryloyl-5-(methoxymethyl)pyrrolidin-3-yl]amino}-N-ethyl-5H-pyrrolo[2,3-b]pyrazine-7-carboxamide], the pIC50 in assay [1] is 8.42; in assay [2], 6.12.
On to `C=CC(=O)N1CC[C@H](N(C)c2cnc3[nH]cc(C(=O)NCC)c3n2)C1` (single isomer, unassigned) [Example 30], for which the pIC50 is 8.16 in assay [1] and 6.06 in assay [2].
Regarding `C=CC(=O)N1CC[C@H](COc2cnc3[nH]cc(C(=O)N[C@H](C)COC)c3n2)C1` (single isomer, unassigned) [Example 15], the figures for the pIC50 in assay [1] and in assay [2] were 7.50 and 5.48, respectively.
With `C=CC(=O)N1CCC(Oc2cnc3[nH]cc(C(=O)NCC4(O)CCC(F)(F)CC4)c3n2)CC1` [Example 207, 2-[(1-acryloylpiperidin-4-yl)oxy]-N-[(4,4-difluoro-1-hydroxycyclohexyl)methyl]-5H-pyrrolo[2,3-b]pyrazine-7-carboxamide], the pIC50 in assay [1] is 8.39; in assay [2] it was 6.27.
Take `C=CC(=O)N1CCC(Oc2cnc3[nH]cc(-c4n[nH]c(C(C)C)n4)c3n2)CC1` [Example 116, 1-[4-({7-[5-(Propan-2-yl)-1H-1,2,4-triazol-3-yl]-5H-pyrrolo[2,3-b]pyrazin-2-yl}oxy)piperidin-1-yl]prop-2-en-1-one]: the pIC50 in assay [1] was 7.83; in assay [2], 5.59.
Take `C=CC(=O)N1CCC(Oc2cnc3[nH]cc(-c4ncnn4C)c3n2)CC1` [Example 122, 1-(4-{[7-(1-Methyl-1H-1,2,4-triazol-5-yl)-5H-pyrrolo[2,3-b]pyrazin-2-yl}oxy)piperidin-1-yl]prop-2-en-1-one]: the pIC50 was 8.05 in assay [1] and 5.83 in assay [2].
Take `C=CC(=O)N1CCN(c2cnc3[nH]cc(C(=O)N[C@@H]4COC[C@@H]4n4cc(F)cn4)c3n2)CC1(C)C` [Example 159, 2-(4-acryloyl-3,3-dimethylpiperazin-1-yl)-N-[(3S,4R)-4-(4-fluoro-1H-pyrazol-1-yl)tetrahydrofuran-3-yl]-5H-pyrrolo[2,3-b]pyrazine-7-carboxamide]: the pIC50 in assay [1] was 8.20; in assay [2], 6.06.
Take `C=CC(=O)N1CCN(c2cnc3[nH]cc(C(=O)N[C@@H]4C[C@H]4C(F)(F)F)c3n2)CC1` [Example 287, 2-(4-acryloylpiperazin-1-yl)-N-[(1R,2R)-2-(trifluoromethyl)cyclopropyl]-5H-pyrrolo[2,3-b]pyrazine-7-carboxamide]: the pIC50 in assay [1] was 8.57; in assay [2], 6.30.
Turning to `C=CC(=O)N1CC[C@@H](COc2cnc3[nH]cc(C(=O)N[C@@H](C)COC)c3n2)C1` (single isomer, unassigned) [Example 12], the pIC50 in assay [1] was 8.28; in assay [2] it was 6.12.
As for `C=CC(=O)N1CCN(c2cnc3[nH]cc(C(=O)N[C@@H](c4ccccc4)C(C)(C)O)c3n2)CC1(C)C` [Example 162, 2-(4-acryloyl-3,3-dimethylpiperazin-1-yl)-N-[(1S)-2-hydroxy-2-methyl-1-phenylpropyl]-5H-pyrrolo[2,3-b]pyrazine-7-carboxamide], the pIC50 in assay [1] is 8.21; in assay [2] it was 6.24.
Regarding `C=CC(=O)N1CC(Nc2cnc3[nH]cc(C(=O)NCC(F)(F)F)c3n2)C2(CC2)C1` (centres unmarked) [Example 242, 2-[(5-acryloyl-5-azaspiro[2.4]hept-7-yl)amino]-N-(2,2,2-trifluoroethyl)-5H-pyrrolo[2,3-b]pyrazine-7-carboxamide], the negative logarithm of the IC50 (pIC50) in assay [1] is 7.21; in assay [2], < 5.00.
In the case of `C=CC(=O)N1CCC(Oc2cnc3[nH]cc(C(=O)NC4CCCC(F)(F)C4)c3c2)CC1` (centres unmarked) [Example 339, 5-[(1-acryloylpiperidin-4-yl)oxy]-N-(3,3-difluorocyclohexyl)-1H-pyrrolo[2,3-b]pyridine-3-carboxamide], the results for the pIC50 in assay [1] and in assay [2] were 7.78 and 5.57, respectively.
On to `C=CC(=O)N1CC[C@@H](Oc2cnc3[nH]cc(C(=O)N[C@@H](C)COC)c3n2)C1` [Example 53, 2-{[(3R)-1-acryloylpyrrolidin-3-yl]oxy}-N-[(2S)-1-methoxypropan-2-yl]-5H-pyrrolo[2,3-b]pyrazine-7-carboxamide], for which the values for the pIC50 in assay [1] and in assay [2] were 7.51 and 5.40, respectively.
For the compound `C=CC(=O)N1CCC(Oc2cnc3[nH]cc(C(=O)NCC4CC4)c3c2)CC1` [Example 343, 5-[(1-acryloylpiperidin-4-yl)oxy]-N-(cyclopropylmethyl)-1H-pyrrolo[2,3-b]pyridine-3-carboxamide], the values for the pIC50 in assay [1] and in assay [2] were 7.12 and 5.31, respectively.
For the compound `C=CC(=O)N1CCC(Oc2cnc3[nH]cc(C(=O)NCC4(O)CCCC[C@@H]4F)c3n2)CC1` (mixture of isomers) [Example 224, Racemic-2-[(1-acryloylpiperidin-4-yl)oxy]-N-{[(2S)-2-fluoro-1-hydroxycyclohexyl]methyl}-5H-pyrrolo[2,3-b]pyrazine-7-carboxamide], the pIC50 in assay [1] was 8.45; in assay [2] it was 6.28.
As for `C=CC(=O)N1CCN(c2cnc3[nH]cc(C(=O)N[C@@H](CO)Cc4cccc(C#N)c4)c3n2)CC1(C)C` [Example 157, 2-(4-acryloyl-3,3-dimethylpiperazin-1-yl)-N-[(2R)-1-(3-cyanophenyl)-3-hydroxypropan-2-yl]-5H-pyrrolo[2,3-b]pyrazine-7-carboxamide], the pIC50 is 7.69 in assay [1] and 5.54 in assay [2].

The record behind these values is US10703756B2, “Pyrrolo[2,3-D]pyrimidinyl, pyrrolo[2,3-B]pyrazinyl, pyrrolo[2,3-B]pyridinyl acrylamides and epoxides thereof” (Pfizer Inc., priority 2015, dated 2020).
